Measurements taken from patent publication US20220331303A1, “USE OF AN OREXIN 2 RECEPTOR AGONIST FOR THE TREATMENT OF EXCESSIVE SLEEPINESS” (Takeda Pharmaceutical Company Limited, priority 2019, published 2022).

Tested on: sleep-deprived healthy volunteers
Assay: Karolinska Sleepiness Scale (KSS) in sleep-deprived healthy volunteers
Assay type: in vivo, human
Settings: for KSS Sleepy/Alert LS Mean / KSS Sleepy/Alert LS Mean Difference vs Placebo Estimate: M: Modafinil 300 mg
Experimental: During the day before dosing on Day 1, participants were administered the KSS at scheduled timepoints. A practice MWT session was performed on Day 1 treatment period 1 (only once during the entire study) to familiarize subjects with the procedures. Study drug was administered in the clinic in the evening on Day 1 of each treatment period. Subjects underwent the MWT and KSS at specified timepoints after the start of the infusion. Subjects were required to stay awake between the MWT tests. Following completion of the IV infusion on Day 2, subjects underwent an additional MWT test. When the final MWT test and cognitive testing were completed, subjects were allowed to sleep (recovery sleep) for approximately 6 hours. PSG recording was collected during this time. Subjects were discharged from the unit after completion on Day 2 with continuing actigraphy upon discharge (to begin on Day −6 before the next treatment period). The interval between each subsequent treatment period was at least 7 days to ensure that the subject's circadian rhythm had returned to a normal cycle. Subject's vital signs, including BP, were monitored during the dosing and testing period. Blood samples for determination of Compound A plasma concentrations were collected at specified timepoints on Days 1 and 2 of each treatment period. Subjects completed the Columbia-Suicide Severity Rating Scale (C-SSRS) during screening, before study drug administration, and before discharge on Day 2 of each treatment period.
Secondary endpoints: • PK parameters calculated from plasma concentrations of Compound A. • Scores for sleepiness on the Karolinska Sleepiness Scale (KSS).
The secondary efficacy endpoint was sleepiness/alertness as assessed by KSS at 14, 10, 6, and 2 hours predose (approximately between 7:45 AM to 7:45 PM); 2, 2.75, 4.75, 6.75, and 8.75 hours post infusion start (approximately between mid-night to 7 AM in the morning); and at 1.75 hours post infusion end. A higher value indicates more sleepiness, a lower value indicates more alertness. Prior to infusion, there were no statistically significant differences at any time point of observation in KSS score for Compound A 44 and 112 mg treatments when compared to placebo. […] On the average, for modafinil and Compound A 44 and 112 mg, there were about 1.6 to 3.7 points increase in the KSS postdose/the infusion start, relative to that prior to dosing during the daytime. However, for placebo, the increase in the average KSS is 4.9.

[1] = DELTA: AVERAGE POST - AVERAGE PRIOR
[2] = Modafinil 300 mg, 1.75 HOURS POST INFUSION END
[3] = Modafinil 300 mg, 2 HOURS PREDOSE
[4] = Modafinil 300 mg, 2.75 HOURS POST INFUSION START
[5] = Modafinil 300 mg, 4.75 HOURS POST INFUSION START
[6] = Modafinil 300 mg, 6 HOURS PREDOSE
[7] = Modafinil 300 mg, 6.75 HOURS POST INFUSION START
[8] = Modafinil 300 mg, 8.75 HOURS POST INFUSION START
[9] = Modafinil 300 mg, 10 HOURS PREDOSE
[10] = Modafinil 300 mg, 14 HOURS PREDOSE

## NC(=O)C[S+]([O-])C(c1ccccc1)c1ccccc1 (stereo not drawn) [Modafinil, modafinil, reference compound]
1.75 HOURS POST INFUSION END
  KSS Sleepy/Alert LS Mean: 7.16
  KSS Sleepy/Alert LS Mean Difference vs Placebo Estimate: −0.99
2 HOURS PREDOSE
  KSS Sleepy/Alert LS Mean: 3.32
  KSS Sleepy/Alert LS Mean Difference vs Placebo Estimate: −0.58
2.75 HOURS POST INFUSION START
  KSS Sleepy/Alert LS Mean: 3.69
  KSS Sleepy/Alert LS Mean Difference vs Placebo Estimate: −3.16
4.75 HOURS POST INFUSION START
  KSS Sleepy/Alert LS Mean: 4.32
  KSS Sleepy/Alert LS Mean Difference vs Placebo Estimate: −3.83
6 HOURS PREDOSE
  KSS Sleepy/Alert LS Mean: 2.58
  KSS Sleepy/Alert LS Mean Difference vs Placebo Estimate: −0.22
6.75 HOURS POST INFUSION START
  KSS Sleepy/Alert LS Mean: 5.79
  KSS Sleepy/Alert LS Mean Difference vs Placebo Estimate: −2.71
8.75 HOURS POST INFUSION START
  KSS Sleepy/Alert LS Mean: 6.69
  KSS Sleepy/Alert LS Mean Difference vs Placebo Estimate: −1.65
10 HOURS PREDOSE
  KSS Sleepy/Alert LS Mean: 2.32
  KSS Sleepy/Alert LS Mean Difference vs Placebo Estimate: −0.18
14 HOURS PREDOSE
  KSS Sleepy/Alert LS Mean: 2.79
  KSS Sleepy/Alert LS Mean Difference vs Placebo Estimate: −0.26
AVERAGE POST INFUSION START (2.75, 4.75, 6.75 AND 8.75 HOURS)
  KSS Sleepy/Alert LS Mean: 5.12
AVERAGE PRIOR TO INFUSION START (14, 10, 6, 2 HOURS PREDOSE)
  KSS Sleepy/Alert LS Mean: 2.75
[1]
  KSS Sleepy/Alert LS Mean: 2.37
  KSS Sleepy/Alert LS Mean Difference vs Placebo Estimate: −2.53
Modafinil 300 mg
  Difference between average KSS score post and prior to infusion start, LS Mean (SE): 2.37 (0.323)
[2]
  KSS Max: 9
  KSS Mean (SD): 7.2 (1.80)
  KSS Median: 8.0
  KSS Min: 3
[3]
  KSS Max: 6
  KSS Mean (SD): 3.3 (1.20)
  KSS Median: 3.0
  KSS Min: 1
[4]
  KSS Max: 6
  KSS Mean (SD): 3.7 (1.63)
  KSS Median: 4.0
  KSS Min: 1
[5]
  KSS Max: 7
  KSS Mean (SD): 4.3 (1.89)
  KSS Median: 4.0
  KSS Min: 1
[6]
  KSS Max: 7
  KSS Mean (SD): 2.6 (1.35)
  KSS Median: 2.0
  KSS Min: 1
[7]
  KSS Max: 8
  KSS Mean (SD): 5.8 (2.12)
  KSS Median: 6.0
  KSS Min: 2
[8]
  KSS Max: 9
  KSS Mean (SD): 6.7 (1.92)
  KSS Median: 7.0
  KSS Min: 3
[9]
  KSS Max: 5
  KSS Mean (SD): 2.3 (1.11)
  KSS Median: 2.0
  KSS Min: 1
[10]
  KSS Max: 5
  KSS Mean (SD): 2.8 (1.08)
  KSS Median: 3.0
  KSS Min: 1
Modafinil 300 mg, 1.75 hours post infusion end
  KSS score: 7.16
